Results from patent US12247031B2, “Cyclobutyl pyrazolopyrimidine PDE9 inhibitors” (Merck Sharp & Dohme LLC, priority 2018, dated 2025).

These compounds were tested against Human PDE9 (PDE9A2) (Homo sapiens (Human), UniProt O76083) (assay: PDE9 IMAP fluorescence polarization assay). Conditions: human PDE9A2, FAM-cGMP substrate 50 nM, IMAP FP, apparent inhibition constant.
Type: biochemical
Protocol: The activity of the compounds in accordance with the present invention as PDE9 inhibitors may be readily determined without undue experimentation using a fluorescence polarization (FP) methodology that is well known in the art (Huang, W., et al., J. Biomol Screen. 2002, 7: 215).
In a typical experiment the PDE9 inhibitory activity of the compounds of the present invention was determined in accordance with the following experimental method.
Human PDE9 (PDE9A2, GenBank Accession No. NM_001001567), full length with N-terminal GST tag, was purchased from BPS Bioscience. The fluorescence polarization assay for cyclic nucleotide phosphodiesterases was performed using an IMAP® FP kit supplied by Molecular Devices, Sunnyvale, CA (product #R8139). IMAP® technology has been applied previously to phosphodiesterase assays (Huang, W., et al., J. Biomol Screen. 2002, 7: 215).
Fluorescence polarization (mP) was calculated from the parallel (S) and perpendicular (P) fluorescence of each sample well and the analogous values for the median control well, containing only substrate (So and Po), using the following equation: Polarization (mP)=1000*(S/So−P/Po)/(S/So+P/Po).
Dose-inhibition profiles for each compound were characterized by fitting the mP data to a four-parameter equation given below. The apparent inhibition constant (KI), the maximum inhibition at the low plateau relative to “100% Inhibition Control” (Imax; e.g. 1=>same as this control), the minimum inhibition at the high plateau relative to the “0% Inhibition Control” (Imin, e.g. 0=>same as the no drug control) and the Hill slope (nH) are determined by a non-linear least squares fitting of the mP values as a function of dose of the compound using an in-house software based on the procedures described by Mosser et al., JALA. 2003, 8: 54-63, using the following equation: […]

| SMILES | Ki [nM] |
| --- | --- |
| C[C@@H](c1ccc(C(F)(F)F)nc1)n1nc(C#N)c2c(=O)[nH]c(C3CCC3n3cc(C(F)(F)F)cn3)nc21 (stereo partly drawn) [Example 31, 4-oxo-6-(2-(4-(trifluoromethyl)-1H-pyrazol-1-yl)cyclobutyl)-1-((S)-1-(6-(trifluoromethyl)pyridin-3-yl)ethyl)-4,5-dihydro-1H-pyrazolo[3,4-d]pyrimidine-3-carbonitrile] | 0.399 |
| C[C@@H](c1ccc(C(F)(F)F)nc1)n1nc(C#N)c2c(=O)[nH]c(C3CCC3c3ccc(F)cn3)nc21 (single isomer, unassigned) [Example 13] | 608 |
| CC(c1ccc(C(F)(F)F)nc1)n1nc(C#N)c2c(=O)[nH]c(C3CCC3n3cc(C#N)cn3)nc21 (single isomer, unassigned) [Example 24, 6-(2-(4-cyano-1H-pyrazol-1-yl)cyclobutyl)-4-oxo-1-(1-(6-(trifluoromethyl)pyridin-3-yl)ethyl)-4,5-dihydro-1H-pyrazolo[3,4-d]pyrimidine-3-carbonitrile] | 22.3 |
| CC(C1CCOCC1)n1nc(C#N)c2c(=O)[nH]c(C3CCC3n3cccn3)nc21 (stereo not shown) [Example 46, 6-(2-(1H-pyrazol-1-yl)cyclobutyl)-4-oxo-1-(1-(tetrahydro-2H-pyran-4-yl)ethyl)-4,5-dihydro-1H-pyrazolo[3,4-d]pyrimidine-3-carbonitrile] | 608 |
| C[C@@H](c1ccc(C(F)(F)F)nc1)n1nc(C#N)c2c(=O)[nH]c(C3CCC3c3ccn(C)n3)nc21 (single isomer, unassigned) [Example 17] | 43.2 |
| C[C@@H](c1ccc(C(F)(F)F)nc1)n1nc(C#N)c2c(=O)[nH]c(C3CCC3n3cccn3)nc21 (single isomer, unassigned) [Example 37] | 124 |
| C[C@@H](c1ccc(C(F)(F)F)nc1)n1nc(C#N)c2c(=O)[nH]c(C3CCC3c3cc4n(n3)CCC4)nc21 (stereo partly drawn) [Example 12, 6-(2-(5,6-dihydro-4H-pyrrolo[1,2-b]pyrazol-2-yl)cyclobutyl)-4-oxo-1-((S)-1-(6-(trifluoromethyl)pyridin-3-yl)ethyl)-4,5-dihydro-1H-pyrazolo[3,4-d]pyrimidine-3-carbonitrile] | 608 |
| C[C@@H](c1ccc(C(F)(F)F)nc1)n1nc(C#N)c2c(=O)[nH]c(C3CCC3n3cc(F)cn3)nc21 (single isomer, unassigned) [Example 35] | 0.402 |
| C[C@@H](c1ccc(C(F)(F)F)nc1)n1nc(C#N)c2c(=O)[nH]c(C3CCC3c3ncccc3F)nc21 (single isomer, unassigned) [Example 15] | 14.1 |
| Cc1nnc(C2CCC2c2nc3c(c(C#N)nn3C(C)c3ccc(C(F)(F)F)nc3)c(=O)[nH]2)o1 (single isomer, unassigned) [Example 5, 6-(2-(5-methyl-1,3,4-oxadiazol-2-yl)cyclobutyl)-4-oxo-1-(1-(6-(trifluoromethyl)pyridin-3-yl)ethyl)-4,5-dihydro-1H-pyrazolo[3,4-d]pyrimidine-3-carbonitrile] | 35 |
| Cc1nnc(C2CCC2c2nc3c(c(C#N)nn3C(C)c3ccc(C(F)(F)F)nc3)c(=O)[nH]2)o1 (single isomer, unassigned) [Example 7, 6-(2-(5-methyl-1,3,4-oxadiazol-2-yl)cyclobutyl)-4-oxo-1-(1-(6-(trifluoromethyl)pyridin-3-yl)ethyl)-4,5-dihydro-1H-pyrazolo[3,4-d]pyrimidine-3-carbonitrile] | 167 |
| CC(c1ccc(C(F)(F)F)nc1)n1nc(C#N)c2c(=O)[nH]c(C3CCC3N3CCOCC3=O)nc21 (stereo not shown) [Example 30, 4-oxo-6-(2-(3-oxomorpholino)cyclobutyl)-1-(1-(6-(trifluoromethyl)pyridin-3-yl)ethyl)-4,5-dihydro-1H-pyrazolo[3,4-d]pyrimidine-3-carbonitrile] | 608 |
| Cc1nnc(C2CCC2c2nc3c(c(C#N)nn3C(C)c3ccc(C(F)(F)F)nc3)c(=O)[nH]2)o1 (single isomer, unassigned) [Example 6, 6-(2-(5-methyl-1,3,4-oxadiazol-2-yl)cyclobutyl)-4-oxo-1-(1-(6-(trifluoromethyl)pyridin-3-yl)ethyl)-4,5-dihydro-1H-pyrazolo[3,4-d]pyrimidine-3-carbonitrile] | 42.7 |
